The test system of the assay is MV-4-11 cells. The experiment in a line: Gene expression microarray analysis (Affymetrix PrimeView) and GSEA. It counts as cell-based, human. Further details: RFU PODN (11730768_x_at) / Fold change /veh PODN (11730768_x_at) / RFU LINC00158 (11744669_a_at) / Fold change /veh LINC00158 (11744669_a_at) / RFU DUSP10 (11751237_a_at) / Fold change /veh DUSP10 (11751237_a_at) / RFU ID3 (11757404_x_at) / Fold change /veh ID3 (11757404_x_at) / RFU PLEKHG5 (11737974_s_at) / Fold change /veh PLEKHG5 (11737974_s_at) / RFU LRRC4B (11730491_at) / Fold change /veh LRRC4B (11730491_at) / RFU GIMAP4 (11747438_a_at) / Fold change /veh GIMAP4 (11747438_a_at) / RFU KRT8 (11758183_x_at) / Fold change /veh KRT8 (11758183_x_at) / RFU CNN1 (11734310_a_at) / Fold change /veh CNN1 (11734310_a_at) / RFU VPS37D (11726825_at) / Fold change /veh VPS37D (11726825_at) / RFU C10orf10 (11716522_x_at) / Fold change /veh C10orf10 (11716522_x_at) / RFU KIR2DL2 /// KIR2DL4 /// KIR2DL5A /// KIR2DL5B /// KIR2DS1 /// KIR2DS2 /// KIR2DS3 /// KIR2DS4 /// KIR3DL3 /// KIR3DL3 /// KIR3DS1 (11738374_at) / Fold change /veh KIR2DL2 /// KIR2DL4 /// KIR2DL5A /// KIR2DL5B /// KIR2DS1 /// KIR2DS2 /// KIR2DS3 /// KIR2DS4 /// KIR3DL3 /// KIR3DL3 /// KIR3DS1 (11738374_at) / RFU C1QL1 (11718748_at) / Fold change /veh C1QL1 (11718748_at) / RFU TMPRSS4 (11747572_a_at) / Fold change /veh TMPRSS4 (11747572_a_at) / RFU HAMP (11756126_x_at) / Fold change /veh HAMP (11756126_x_at) / RFU RNFT2 (11725882_a_at) / Fold change /veh RNFT2 (11725882_a_at) / RFU NR4A2 (11747474_a_at) / Fold change /veh NR4A2 (11747474_a_at) / RFU ABCC12 (11746883_a_at) / Fold change /veh ABCC12 (11746883_a_at) / RFU TMEM136 (11760407_x_at) / Fold change /veh TMEM136 (11760407_x_at) / RFU CLDN22 /// WWC2 (11732394_at) / Fold change /veh CLDN22 /// WWC2 (11732394_at) / RFU HLA-DPB1 (11760878_x_at) / Fold change /veh HLA-DPB1 (11760878_x_at) / RFU SPINT1 (11716480_a_at) / Fold change /veh SPINT1 (11716480_a_at) / RFU GAP43 (11754022_s_at) / Fold change /veh GAP43 (11754022_s_at) / RFU A4GNT (11735810_at) / Fold change /veh A4GNT (11735810_at) / RFU PRB3 (11715151_x_at) / Fold change /veh PRB3 (11715151_x_at) / RFU TUBB4B (11761932_at) / Fold change /veh TUBB4B (11761932_at) / RFU CAPN14 (11732068_a_at) / Fold change /veh CAPN14 (11732068_a_at) / RFU TMCC2 (11721928_a_at) / Fold change /veh TMCC2 (11721928_a_at) / RFU IRGQ (11745062_a_at) / Fold change /veh IRGQ (11745062_a_at) / RFU FAM174B (11720279_a_at) / Fold change /veh FAM174B (11720279_a_at) / RFU TMPRSS4 (11748680_a_at) / Fold change /veh TMPRSS4 (11748680_a_at) / RFU FAM212B (11763350_a_at) / Fold change /veh FAM212B (11763350_a_at) / RFU PLEKHG5 (11743358_a_at) / Fold change /veh PLEKHG5 (11743358_a_at) / RFU ZSCAN30 (11745921_a_at) / Fold change /veh ZSCAN30 (11745921_a_at) / RFU CMKLR1 (11741424_a_at) / Fold change /veh CMKLR1 (11741424_a_at) / RFU LOC101060620 /// MAPK8IP1 (11723275_at) / Fold change /veh LOC101060620 /// MAPK8IP1 (11723275_at) / RFU SPTSSB (11747773_x_at) / Fold change /veh SPTSSB (11747773_x_at) / RFU PRSS12 (11739890_at) / Fold change /veh PRSS12 (11739890_at) / RFU BIN1 (11741810_x_at) / Fold change /veh BIN1 (11741810_x_at) / RFU WNT11 (11732464_a_at) / Fold change /veh WNT11 (11732464_a_at) / RFU C10orf10 (11716521_a_at) / Fold change /veh C10orf10 (11716521_a_at) / RFU C5orf56 (11738089_at) / Fold change /veh C5orf56 (11738089_at) / RFU CYB561 (11721691_x_at) / Fold change /veh CYB561 (11721691_x_at) / RFU ANKRD19P (11752326_a_at) / Fold change /veh ANKRD19P (11752326_a_at) / RFU OR2T12 /// OR2T33 /// OR2T8 (11738714_s_at) / Fold change /veh OR2T12 /// OR2T33 /// OR2T8 (11738714_s_at) / RFU VCAN (11748164_a_at) / Fold change /veh VCAN (11748164_a_at) / RFU JSRP1 (11732532_at) / Fold change /veh JSRP1 (11732532_at) / RFU KRTAP10-11 (11738290_x_at) / Fold change /veh KRTAP10-11 (11738290_x_at) / RFU MYO3A (11730013_a_at) / Fold change /veh MYO3A (11730013_a_at) / RFU EBF3 (11725865_a_at) / Fold change /veh EBF3 (11725865_a_at) / RFU CAMK2N1 (11719241_x_at) / Fold change /veh CAMK2N1 (11719241_x_at) / RFU C5orf56 (11738088_a_at) / Fold change /veh C5orf56 (11738088_a_at) / RFU OLFML3 (11715873_a_at) / Fold change /veh OLFML3 (11715873_a_at) / RFU LOC100653217 /// NTM (11731650_a_at) / Fold change /veh LOC100653217 /// NTM (11731650_a_at) / RFU MAPK11 (11762145_a_at) / Fold change /veh MAPK11 (11762145_a_at) / RFU FIZ1 (11724087_x_at) / Fold change /veh FIZ1 (11724087_x_at) / RFU OASL (11726364_x_at) / Fold change /veh OASL (11726364_x_at) / RFU SOX15 (11748057_x_at) / Fold change /veh SOX15 (11748057_x_at) / RFU CD79A (11719716_a_at) / Fold change /veh CD79A (11719716_a_at) / RFU HIST1H1D (11736915_at) / Fold change /veh HIST1H1D (11736915_at) / RFU CASKIN2 (11723855_a_at) / Fold change /veh CASKIN2 (11723855_a_at) / RFU LOC730098 (11760151_x_at) / Fold change /veh LOC730098 (11760151_x_at) / RFU OR4N2 (11742367_at) / Fold change /veh OR4N2 (11742367_at) / RFU PRRT2 (11749266_a_at) / Fold change /veh PRRT2 (11749266_a_at) / RFU SNX32 (11753110_a_at) / Fold change /veh SNX32 (11753110_a_at) / RFU CDHR5 (11726645_a_at) / Fold change /veh CDHR5 (11726645_a_at) / RFU RCAN1 (11760418_a_at) / Fold change /veh RCAN1 (11760418_a_at) / RFU FAM167A (11723789_a_at) / Fold change /veh FAM167A (11723789_a_at) / RFU FAM26E (11764081_at) / Fold change /veh FAM26E (11764081_at) / RFU ISYNA1 (11749810_s_at) / Fold change /veh ISYNA1 (11749810_s_at) / RFU ACY1 (11761880_at) / Fold change /veh ACY1 (11761880_at) / RFU 11764098_at / Fold change /veh 11764098_at / RFU SAMD14 (11745864_x_at) / Fold change /veh SAMD14 (11745864_x_at) / RFU NPB (11741838_a_at) / Fold change /veh NPB (11741838_a_at) / RFU TMPRSS6 (11731388_a_at) / Fold change /veh TMPRSS6 (11731388_a_at) / RFU KRTAP10-2 (11738614_at) / Fold change /veh KRTAP10-2 (11738614_at) / RFU ARHGAP8 /// PRR5-ARHGAP8 (11727945_x_at) / Fold change /veh ARHGAP8 /// PRR5-ARHGAP8 (11727945_x_at) / RFU KRTAP5-7 /// NADSYN1 (11734609_at) / Fold change /veh KRTAP5-7 /// NADSYN1 (11734609_at) / RFU RASL12 (11751679_a_at) / Fold change /veh RASL12 (11751679_a_at) / RFU CDKN2B (11736163_a_at) / Fold change /veh CDKN2B (11736163_a_at) / RFU PRF1 (11729649_at) / Fold change /veh PRF1 (11729649_at) / RFU, ZNF638 /// ZNF638-IT1 / Fold change vs veh, ZNF638 /// ZNF638-IT1 / RFU, PANK3 / Fold change vs veh, PANK3 / RFU, SH3YL1 / Fold change vs veh, SH3YL1 / RFU, ZEB2 / Fold change vs veh, ZEB2 / RFU, NRIP1 / Fold change vs veh, NRIP1 / RFU, PTTG1IP / Fold change vs veh, PTTG1IP / RFU, CAPN2 / Fold change vs veh, CAPN2 / RFU, MED14 / Fold change vs veh, MED14 / RFU, SNORA58 / Fold change vs veh, SNORA58 / RFU, C1orf63 / Fold change vs veh, C1orf63 / RFU, LRRFIP1 / Fold change vs veh, LRRFIP1 / RFU, NDUFAF7 / Fold change vs veh, NDUFAF7 / RFU, SLC12A2 / Fold change vs veh, SLC12A2 / RFU, IBTK / Fold change vs veh, IBTK / RFU, ESF1 / Fold change vs veh, ESF1 / Fold change vs veh, TMEM50B / RFU, TAOK1 / Fold change vs veh, TAOK1 / RFU, ACBD3 / Fold change vs veh, ACBD3 / RFU, TMA16 / Fold change vs veh, TMA16 / RFU, RWDD3 / Fold change vs veh, RWDD3 / RFU, BCAT1 / Fold change vs veh, BCAT1 / RFU, EDEM3 / Fold change vs veh, EDEM3 / RFU, TMEM33 / Fold change vs veh, TMEM33 / RFU, WDR75 / Fold change vs veh, WDR75 / RFU, AHCTF1 / Fold change vs veh, AHCTF1 / RFU, TFRC / Fold change vs veh, TFRC / RFU, ZDHHC17 / Fold change vs veh, ZDHHC17 / RFU, NOM1 / Fold change vs veh, NOM1 / RFU, ARL8B / Fold change vs veh, ARL8B / RFU, ZBTB11 / Fold change vs veh, ZBTB11 / RFU, TAMM41 / Fold change vs veh, TAMM41 / RFU, KIAA1704 /// LOC100996395 / Fold change vs veh, KIAA1704 /// LOC100996395 / RFU, ING1 / Fold change vs veh, ING1 / RFU, TRMT61B / Fold change vs veh, TRMT61B / RFU, FUBP3 / Fold change vs veh, FUBP3 / RFU, TP53 / Fold change vs veh, TP53 / RFU, TNKS2 / Fold change vs veh, TNKS2 / RFU, ZFP14 / Fold change vs veh, ZFP14 / RFU, ACTR2 / Fold change vs veh, ACTR2 / RFU, PPP3R1 / Fold change vs veh, PPP3R1 / RFU, PIK3R1 / Fold change vs veh, PIK3R1 / RFU, HNRNPA1 / Fold change vs veh, HNRNPA1 / RFU, RNF170 / Fold change vs veh, RNF170 / RFU, ZNF28 / Fold change vs veh, ZNF28 / RFU, RNGTT / Fold change vs veh, RNGTT / RFU, OGT / Fold change vs veh, OGT / RFU, BRD1 / Fold change vs veh, BRD1 / RFU, MARS / Fold change vs veh, MARS / RFU, ZNF655 / Fold change vs veh, ZNF655 / RFU, FAHD1 / Fold change vs veh, FAHD1 / RFU, BDP1 / Fold change vs veh, BDP1 / RFU, LRRCC1 / Fold change vs veh, LRRCC1 / RFU, ARID1A / Fold change vs veh, ARID1A / RFU, ZNF146 / Fold change vs veh, ZNF146 / RFU, ZNF330 / Fold change vs veh, ZNF330 / RFU, GPN3 / Fold change vs veh, GPN3 / RFU, C9orf123 / Fold change vs veh, C9orf123 / RFU, N4BP2L2 / Fold change vs veh, N4BP2L2 / RFU, ARFIP1 / Fold change vs veh, ARFIP1 / RFU, FAM179B / Fold change vs veh, FAM179B / RFU, BCL10 / Fold change vs veh, BCL10 / RFU, UHRF1BP1L / Fold change vs veh, UHRF1BP1L / RFU, BET1 / Fold change vs veh, BET1 / RFU, CNOT2 / Fold change vs veh, CNOT2 / RFU, ZNF268 / Fold change vs veh, ZNF268 / Fold change vs veh, ZNF507 / RFU, DGCR2 / Fold change vs veh, DGCR2 / RFU, WDSUB1 / Fold change vs veh, WDSUB1 / Fold change vs veh, HSP90B1 /// MIR3652 / RFU, ADSS / Fold change vs veh, ADSS / RFU, GK / Fold change vs veh, GK / RFU, ZNF148 / Fold change vs veh, ZNF148 / RFU, TAF9 / Fold change vs veh, TAF9 / RFU, SLC1A5 / Fold change vs veh, SLC1A5 / RFU, SLMO2 / Fold change vs veh, SLMO2 / RFU, ABCC4 / Fold change vs veh, ABCC4 / RFU, LOC101060439 /// RAP1B / Fold change vs veh, LOC101060439 /// RAP1B / RFU, RFX7 / Fold change vs veh, RFX7 / RFU, GTPBP10 / Fold change vs veh, GTPBP10 / RFU, CNEP1R1 / Fold change vs veh, CNEP1R1 / RFU, BIVM-ERCC5 /// ERCC5 / Fold change vs veh, BIVM-ERCC5 /// ERCC5 / RFU, ILF3 / Fold change vs veh, ILF3 / RFU 11762660_at / Fold change /veh 11762660_at / RFU VCAN (11757783_s_at) / Fold change /veh VCAN (11757783_s_at) / RFU DDX43 (11728927_at) / Fold change /veh DDX43 (11728927_at) / RFU KRT8 (11758188_x_at) / Fold change /veh KRT8 (11758188_x_at) / RFU NKD1 (11759106_at) / Fold change /veh NKD1 (11759106_at) / RFU SRD5A1 (11742802_a_at) / Fold change /veh SRD5A1 (11742802_a_at) / RFU TPSAB1 /// TPSB2 (11721975_s_at) / Fold change /veh TPSAB1 /// TPSB2 (11721975_s_at) / RFU GSTM3 (11746129_a_at) / Fold change /veh GSTM3 (11746129_a_at) / RFU IL23R (11737362_x_at) / Fold change /veh IL23R (11737362_x_at) / RFU TMEM51 (11727254_a_at) / Fold change /veh TMEM51 (11727254_a_at) / RFU PIWIL2 (11732686_x_at) / Fold change /veh PIWIL2 (11732686_x_at) / RFU ORM1 (11744905_x_at) / Fold change /veh ORM1 (11744905_x_at) / RFU CCDC152 (11743942_at) / Fold change /veh CCDC152 (11743942_at) / RFU ECM1 (11717891_a_at) / Fold change /veh ECM1 (11717891_a_at) / RFU IL23R (11748794_a_at) / Fold change /veh IL23R (11748794_a_at) / RFU TNFAIP8L3 (11732012_x_at) / Fold change /veh TNFAIP8L3 (11732012_x_at) / RFU MBOAT4 (11741988_at) / Fold change /veh MBOAT4 (11741988_at) / RFU 11764193_at / Fold change /veh 11764193_at / RFU TMEM53 (11763286_at) / Fold change /veh TMEM53 (11763286_at) / RFU MAGEB2 (11727129_at) / Fold change /veh MAGEB2 (11727129_at) / RFU TMEM200A (11744735_a_at) / Fold change /veh TMEM200A (11744735_a_at) / RFU CCDC152 (11751479_a_at) / Fold change /veh CCDC152 (11751479_a_at) / RFU FAM211A (11726209_a_at) / Fold change /veh FAM211A (11726209_a_at) / RFU RGS16 (11746705_a_at) / Fold change /veh RGS16 (11746705_a_at) / RFU VCAN (11755009_s_at) / Fold change /veh VCAN (11755009_s_at) / RFU RHOB (11743442_s_at) / Fold change /veh RHOB (11743442_s_at) / RFU RGS16 (11720943_a_at) / Fold change /veh RGS16 (11720943_a_at) / RFU RGS16 (11720944_at) / Fold change /veh RGS16 (11720944_at) / RFU, VPS4B / Fold change vs veh, VPS4B / RFU, CREB1 / Fold change vs veh, CREB1 / RFU, DNAJC13 / Fold change vs veh, DNAJC13 / RFU, GNAQ / Fold change vs veh, GNAQ / RFU, CDK5R1 / Fold change vs veh, CDK5R1 / RFU, ZRANB3 / Fold change vs veh, ZRANB3 / RFU, CUL4A / Fold change vs veh, CUL4A / RFU, CCNY / Fold change vs veh, CCNY / RFU, UFL1 / Fold change vs veh, UFL1 / RFU, COG3 / Fold change vs veh, COG3 / RFU, DIAPH2 / Fold change vs veh, DIAPH2 / RFU, SKA2 / Fold change vs veh, SKA2 / RFU, AFF3 / Fold change vs veh, AFF3 / RFU, LMF1 / Fold change vs veh, LMF1 / RFU, IPO11 / Fold change vs veh, IPO11 / RFU, DFFB / Fold change vs veh, DFFB / RFU, FOXP1 / Fold change vs veh, FOXP1 / RFU, CARD8 / Fold change vs veh, CARD8 / RFU, STRN3 / Fold change vs veh, STRN3 / RFU, ADK / Fold change vs veh, ADK / RFU, RASSF2 / Fold change vs veh, RASSF2 / RFU, WIPF1 / Fold change vs veh, WIPF1 / RFU, LARP1B / Fold change vs veh, LARP1B / RFU, RASA1 / Fold change vs veh, RASA1 / RFU, RB1 / Fold change vs veh, RB1 / RFU, PPFIA1 / Fold change vs veh, PPFIA1 / RFU, MAT2A / Fold change vs veh, MAT2A / RFU, CCT5 / Fold change vs veh, CCT5 / RFU, WDR92 / Fold change vs veh, WDR92 / RFU, CUX1 / Fold change vs veh, CUX1 / RFU, TTC7A / Fold change vs veh, TTC7A / RFU, TMEM135 / Fold change vs veh, TMEM135 / RFU, DEPTOR / Fold change vs veh, DEPTOR / RFU, CPM / Fold change vs veh, CPM / RFU, DNAJB6 / Fold change vs veh, DNAJB6 / RFU, CACNA2D3 / Fold change vs veh, CACNA2D3 / RFU, DTX4 / Fold change vs veh, DTX4 / RFU, TFCP2 / Fold change vs veh, TFCP2 / RFU, GMCL1 /// GMCL1P1 / Fold change vs veh, GMCL1 /// GMCL1P1 / RFU, AEBP2 / Fold change vs veh, AEBP2 / RFU, SNHG1 /// SNORD22 /// SNORD25 /// SNORD26 /// SNORD27 /// SNORD28 /// SNORD29 /// SNORD31 / Fold change vs veh, SNHG1 /// SNORD22 /// SNORD25 /// SNORD26 /// SNORD27 /// SNORD28 /// SNORD29 /// SNORD31 / Fold change (Aza/veh), C12orf56 (ProbeSet 11735607_a_at) / Fold change (ACY-1035/veh), C12orf56 (ProbeSet 11735607_a_at) / Fold change (Aza/veh), FGFR1OP (ProbeSet 11751329_s_at) / Fold change (ACY-1035/veh), FGFR1OP (ProbeSet 11751329_s_at) / Fold change (Aza/veh), VPS36 (ProbeSet 11739960_a_at) / Fold change (ACY-1035/veh), VPS36 (ProbeSet 11739960_a_at) / RFU SYPL1 (11715823_x_at) / Fold change /veh SYPL1 (11715823_x_at) / RFU IGFBP7 (11715501_s_at) / Fold change /veh IGFBP7 (11715501_s_at) / RFU REEP3 (11722064_at) / Fold change /veh REEP3 (11722064_at) / RFU IGLL1 (11728026_x_at) / Fold change /veh IGLL1 (11728026_x_at): dose or concentration left out as unconfirmed. Particulars: MV-4-11 cells, 48 hours.

Each structure is given as a SMILES string.

On to `Nc1ncn([C@@H]2O[C@H](CO)[C@@H](O)[C@H]2O)c(=O)n1` [azacitidine], for which the “Fold change /veh PRB3 (11715151_x_at)” value worked out at 0.94.

The record behind these values is publication PMC5218480 (PLoS ONE, 2017).
